Legend:
[1] = target: T1, LPL (native bovine milk protein) inactivated by ANGPTL4 (Bos taurus, UniProt P11151); assay: LPL ANGPTL4 protection assay (LPL fluorescence assay, resorufin butyrate substrate); type: biochemical; details: LPL activation activity, LPL 2.5 nM, ANGPTL4 20 nM
T1 construct: from tissue; host or cells: bovine milk (LPL); E. coli (GST-ANGPTL4)
T1 sequence (P11151 29-478): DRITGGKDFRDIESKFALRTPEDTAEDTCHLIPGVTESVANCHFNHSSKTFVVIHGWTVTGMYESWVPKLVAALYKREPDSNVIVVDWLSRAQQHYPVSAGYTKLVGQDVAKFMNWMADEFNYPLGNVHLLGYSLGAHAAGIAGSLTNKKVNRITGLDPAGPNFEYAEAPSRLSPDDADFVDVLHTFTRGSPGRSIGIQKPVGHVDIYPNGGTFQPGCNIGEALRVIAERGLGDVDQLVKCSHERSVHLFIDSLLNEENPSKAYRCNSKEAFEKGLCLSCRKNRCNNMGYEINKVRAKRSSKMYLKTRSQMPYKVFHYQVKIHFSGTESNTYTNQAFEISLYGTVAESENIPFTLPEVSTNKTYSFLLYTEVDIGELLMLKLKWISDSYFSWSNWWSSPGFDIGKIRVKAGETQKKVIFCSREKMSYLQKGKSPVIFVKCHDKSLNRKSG
Experimental: LPL is inactivated by angiopoietin-like 4 (ANGPTL4). Compounds of the present disclosure were for activity using the following protection assay. Briefly, the assay was performed in a black opaque 96-well microtiter plate with final volume of 100 μL using a buffer consisting of 50 mM HEPES (pH 7.2), 150 mM NaCl and 0.03% Triton X-100. Compounds were prepared as 10 mM stocks in DMSO, with subsequent serial dilutions performed in DMSO. Two microliters of test compounds were added to the microtiter plate, followed by 49-PL of LPL (native bovine milk protein affinity purified using heparin-affinity chromatography) in assay buffer. The plate contents were mixed using an orbital shaker and allowed to incubate for 5 minutes at room temperature. The enzymatic assay was initiated by the addition of a mixture of 49 μL of 50 μM resorufin butyrate (Santa Cruz #sc-208302; prepared from a 10 mM DMSO stock) and ANGPTL4 (N-terminal GST construct consisting of residues 26-164 expressed in E. coli) in assay buffer. The final concentrations of LPL and ANGPTL4 were 2.5 nM and 20 nM, respectively. The assay was allowed to proceed at 30° C. for 25 minutes with kinetic monitoring (Ex560/Em585) followed by an endpoint reading which was used for analysis.
Data was analyzed in Graphpad Prism (version 6.0, GraphPad Software, Inc., San Diego, CA) using a variable slope four parameter fit of the equation:
Y=Bottom+(Top-Bottom)/(1+10^((Log EC50−X)*HillSlope)),
where X is the concentration of test compound, Y corresponds to the amount of product expressed in relative fluorescence units, and Top and Bottom refer to the plateaus of the curve. Percent activation (protection) of test compound was calculated relative to zero effect wells (ZEW; LPL, ANGPTL4 and substrate) and maximum effect wells (MEW; LPL plus substrate): ((test well−ZEW)/(MEW−ZEW))*100.

C57BL/6 mice = assay: Oral fat tolerance test (postprandial triglyceridaemia after olive oil bolus); type: in vivo; details: overnight-fasted C57BL/6 mice, compound IP 1 h before 10 mL/kg olive oil, bled at 1, 2 and 3.5 h
Experimental: To examine to effects of test compounds on postprandial triglycerdemia, 5-7 week old C57BL/6 mice were fasted overnight (18 hours) on non-nutritive bedding (Alpha-Dri). Following the overnight fast, the mice are bled via retro-orbital sinus (25 μL) using microcapillaries (t-1 hr sample). The LPL activator test compound was then administered intraperitoneally (IP) in a dose volume of 10 ml/kg. One hour later the mice were bled for the t=0 timepoint. The mice were then immediately dosed with a 10 mL/kg oral bolus of olive oil. The mice were subsequently bled at 1-, 2-, and 3.5-hours post-olive oil administration.
Whole blood samples were collected into tubes containing 0.125% EDTA solution in saline. Diluted plasma samples were analyzed for triglyceride levels using Infinity Triglyceride reagent (Thermo) on a microtiter plate. Briefly, 10 μL of diluted sample was added the plate. 200 μL of the reagent was added and the plate was incubated for 10 minutes at 37° C. The plate was then read at 550 nm on a Molecular Devices M5 Spectrophotometer (San Jose, CA). The concentration of triglycerides in the sample was determined using a standard curve made using a dilution of triglyceride standard (Sigma-Aldrich, St. Louis, MO) using the Softmax software from Molecular Devices. All graphing and subsequent area under-the-curve and statistical analysis (Student's t Test) is performed using GraphPad Prism (version 8.0, GraphPad Software, Inc., San Diego, CA).

SMILES | EC50 [1] [µM] | hypertriglyceridemia response to oral olive oil gavage (plasma triglycerides) (C57BL/6 mice)
Cc1ccc(NC(=O)c2cc(N3Cc4cc(-c5nnn[nH]5)ccc4C3=O)ccc2N2CCCCC2)cc1 [Compound 170, 5-(1-oxo-5-(1H-tetrazol-5-yl)isoindolin-2-yl)-2-(piperidin-1-yl)-N-(p-tolyl)benzamide] | 7.98 | blunts hypertriglyceridemia response in a dose-dependent fashion
CCn1nc(C(=O)Nc2cc(C(=O)Nc3ccccc3CC(=O)NS(C)(=O)=O)ccc2N2CCCCC2)c2ccccc21 [Compound 172, 1-ethyl-N-(5-((2-(2-(methylsulfonamido)-2-oxoethyl)phenyl)carbamoyl)-2-(piperidin-1-yl)phenyl)-1H-indazole-3-carboxamide] | 7.5 | blunts hypertriglyceridemia response in a dose-dependent fashion
Cc1ccc(NC(=O)c2cc(NCc3ccc(-c4nnn[nH]4)cc3)ccc2N2CCCCC2)cc1 [Compound 175, 5-((4-(1H-tetrazol-5-yl)benzyl)amino)-2-(piperidin-1-yl)-N-(p-tolyl)benzamide] | 13.4 | blunts hypertriglyceridemia response in a dose-dependent fashion

Now from value to molecule, other results behind:

EC50 [1] [µM] | SMILES | hypertriglyceridemia response to oral olive oil gavage (plasma triglycerides) (C57BL/6 mice)
5.85 | Cn1c(C(=O)Nc2cc(C(=O)Nc3ccccc3CC(=O)O)ccc2N2CCCCC2)cc2ccccc21 [Compound 173, 2-(2-(3-(1-methyl-1H-indole-2-carboxamido)-4-(piperidin-1-yl)benzamido)phenyl)acetic acid] | blunts hypertriglyceridemia response in a dose-dependent fashion
3.99 | Cn1nc(C(=O)Nc2cc(C(=O)Nc3ccccc3CC(=O)O)ccc2N2CCCCC2)c2ccccc21 [Compound 174, 2-(2-(3-(1-methyl-1H-indazole-3-carboxamido)-4-(piperidin-1-yl)benzamido)phenyl)acetic acid] | blunts hypertriglyceridemia response in a dose-dependent fashion
5.74 | Cc1ccc(NC(=O)c2cc(NC(=O)c3ccccc3C(=O)O)ccc2NC2CCCC2)cc1Cl [Compound 176, 2-((3-((3-chloro-4-methylphenyl)carbamoyl)-4-(cyclopentylamino)phenyl)carbamoyl)benzoic acid] | blunts hypertriglyceridemia response in a dose-dependent fashion

Source: patent publication US20250092014A1, “COMPOUNDS AND METHODS OF ACTIVATING LIPOPROTEIN LIPASE” (Metrea Biosciences, Inc., priority 2021, published 2025)
